Test results as given in patent US20130254944A1, “Herbicide Tolerant Soybeans and Methods of Use” (PIONEER HI BRED INTERNATIONAL INC, priority 2012, published 2013).

How the values were obtained:
Format in all cases: in vivo
[1] = system: soybean having the Als2 mutation; test: Greenhouse postemergence test of ALS-inhibiting herbicides, soybean with Als2 mutation; conditions: for phytotoxic response (in words), Als2: rates 0.5x to 8x the label rate; for Avg response (% phytotoxicity), Trait Als2: Table 2
Procedure: (§1) Soybean lines having wild type als1 & 2 genes, the Als1 mutation, the Als2 mutation, or both the Als1 and Als2 mutations were evaluated for their response to various herbicides. Two seeds from each line were planted into 4-inch pots containing Redi-Earth potting mix (Sun Gro Horticulture Canada Ltd. 52130 RR65, Seba Beach, Alberta TOE 2B0), with two replications planted for each treatment. Pots were placed in flats at 15 pots/flat, and the resulting plants were grown in a greenhouse environment supplemented with lighting (16 hr photoperiod) for the duration of the test. Selected herbicides representing the mode of action that inhibits the acetolactate synthase enzyme, also known as the acetohydroxyacid synthase enzyme, were applied postemergence to soybean when soybean plants were at the V2 growth stage, which is the stage at which the first two trifoliolate leaves were expanded.
(§2) Eleven active ingredients representing the five chemical families with herbicidal activity on the acetolactate synthase enzyme were tested. These herbicides can cause a phytotoxic response in wild type soybean plants. The five chemical families tested were sulfonylaminocarbonyltriazolinone (also known as triazolinone), imidazolinone, sulfonylurea, pyrimidinylthiobenzoate, and triazolopyrimidine. Application rates ranged from 0.5 times to eight times the currently labeled application rate for each active ingredient with spray application volume at 30 gallons/acre. The application rates tested were 0.5×, 1×, 2×, 4× and 8× the label rate for each herbicide. Herbicidal active ingredients were applied as formulated materials dispersed in water containing 0.25% nonionic surfactant (Trend® 90).
(§3) The test was evaluated by visually scoring plant phenotype 14 days after the herbicides were applied. Controls consisted of soybean plants of the same variety that received no herbicide treatments for each of all the varieties tested. Soybean response was recorded on a zero to 100 visual scale in which zero is no phytotoxic response and 100 is plant death fourteen days after the herbicides were applied. Soybean response (percent phytotoxicity) to postemergence applications of herbicides inhibiting the acetolactate synthase enzyme test results are shown in Table 1.
(§4) Results in Table 1 were evaluated using the isobole method for analyzing interactions. […] Here the biologically active agents that are being assessed for interaction (synergy) are gene mutations in soybean. The effectiveness of the genes in providing improved tolerance to ALS-inhibiting herbicides was assessed by applying increasing doses of herbicides to each soybean line with its mutation(s).
(§5) An isobole reduces a dose response surface in three dimensional space to a two dimensional plot by fixing a defined response level (e.g., 50% response). The isobole plot is a graph in the Cartesian plane with a straight line connecting the isoeffective rates of the individual components of the combination. This straight line represents expected responses for zero interactive combinations. The isoeffective rate used to create the isobole is often the EC50, the rate estimated to elicit 50% response, but other ECx values can be used. Since the isobole method is based on the potency of the components of the combination, an experimental design testing a range of rates expected to elicit the full range of responses (e.g., 0 to maximum response) is best. (Ferry et al. (2005) 2005 Conference on Applied Statistics in Agriculture Proceedings pp 33-50, Manhattan, Kans., Kansas State Univ.; Green and Streibig (1993) Herbicide Mixtures, pp 117-134 in Herbicide Bioassays, Streibig and Hudsk Eds, CRC, Boca Raton, Fla.).
(§6) Loglogistic dose response curves were fit to percent phytotoxicity response data using log 10 of dose (McCullagh and Nelder (1989) Generalized Linear Models, Chapman & Hall, London). Curves were fit using the logit link with normal errors. […]

wild type soybean = test: Greenhouse postemergence test of ALS-inhibiting herbicides, wild type soybean
Procedure: as §1, §2, §3

[2] = system: soybean having the Als1 mutation; test: Greenhouse postemergence test of ALS-inhibiting herbicides, soybean with Als1 mutation; conditions: for phytotoxic response (in words), Als1: rates 0.5x to 8x the label rate; for Avg response (% phytotoxicity), Trait Als1: Table 2
Procedure: as §1, §2, §3, §4, §5, §6

[3] = system: soybean having both the Als1 and Als2 mutations; test: Greenhouse postemergence test of ALS-inhibiting herbicides and isobole analysis, soybean with Als1 and Als2 mutations; conditions: for phytotoxic response (in words), Als1+Als2: rates 0.5x to 8x the label rate; for Avg response (% phytotoxicity), Trait Als1 + Als2: Table 2
Procedure: as §1, §2, §3, §4, §5, §6

[4] = 8.75 g ai/ha postemergence at V2, scored 14 days after application
[5] = 17.5 g ai/ha postemergence at V2, scored 14 days after application
[6] = 35 g ai/ha postemergence at V2, scored 14 days after application
[7] = 70 g ai/ha postemergence at V2, scored 14 days after application
[8] = 140 g ai/ha postemergence at V2, scored 14 days after application
[9] = 280 g ai/ha postemergence at V2, scored 14 days after application
[10] = rate of herbicide estimated to cause 10% phytotoxic response, loglogistic fit

COc1cc(Cl)nc(NC(=O)NS(=O)(=O)c2ccccc2C(=O)O)n1 [Chlorimuron]
5%: Soybean response (percent phytotoxicity), Wild type (wild type soybean; [5])
35%: Soybean response (percent phytotoxicity), Wild type (wild type soybean; [7])
45%: Soybean response (percent phytotoxicity), Wild type (wild type soybean; [8])
0%: Soybean response (percent phytotoxicity), Als2 [1, 4] | Soybean response (percent phytotoxicity), Als2 [1, 5] | Soybean response (percent phytotoxicity), Als2 [1, 6] | Soybean response (percent phytotoxicity), Als2 [1, 7] | Soybean response (percent phytotoxicity), Als2 [1, 8] | Soybean response (percent phytotoxicity), Wild type (wild type soybean; [4]) | Soybean response (percent phytotoxicity), Als1 [2, 4] | Soybean response (percent phytotoxicity), Als1 [2, 5] | Soybean response (percent phytotoxicity), Als1 [2, 6] | Soybean response (percent phytotoxicity), Als1 [2, 7] | Soybean response (percent phytotoxicity), Als1 [2, 8] | Soybean response (percent phytotoxicity), Als1 + Als2 [3, 4] | Soybean response (percent phytotoxicity), Als1 + Als2 [3, 5] | Soybean response (percent phytotoxicity), Als1 + Als2 [3, 6] | Soybean response (percent phytotoxicity), Als1 + Als2 [3, 7] | Soybean response (percent phytotoxicity), Als1 + Als2 [3, 8]
did not cause any phytotoxic response: phytotoxic response (in words), Als2 [1] | phytotoxic response (in words), Als1 [2] | phytotoxic response (in words), Als1+Als2 [3]
20%: Soybean response (percent phytotoxicity), Wild type (wild type soybean; [6])

CCOc1nc(F)cc2nc(S(=O)(=O)Nc3c(Cl)cccc3C(=O)OC)nn12 [Cloransulam methyl]
0%: Soybean response (percent phytotoxicity), Als2 [1, 4] | Soybean response (percent phytotoxicity), Als2 [1, 5] | Soybean response (percent phytotoxicity), Als2 [1, 6] | Soybean response (percent phytotoxicity), Als2 [1, 7] | Soybean response (percent phytotoxicity), Als2 [1, 8] | Soybean response (percent phytotoxicity), Wild type (wild type soybean; [4]) | Soybean response (percent phytotoxicity), Wild type (wild type soybean; [5]) | Soybean response (percent phytotoxicity), Wild type (wild type soybean; [6]) | Soybean response (percent phytotoxicity), Als1 [2, 4] | Soybean response (percent phytotoxicity), Als1 [2, 5] | Soybean response (percent phytotoxicity), Als1 [2, 6] | Soybean response (percent phytotoxicity), Als1 [2, 7] | Soybean response (percent phytotoxicity), Als1 [2, 8] | Soybean response (percent phytotoxicity), Als1 + Als2 [3, 4] | Soybean response (percent phytotoxicity), Als1 + Als2 [3, 5] | Soybean response (percent phytotoxicity), Als1 + Als2 [3, 6] | Soybean response (percent phytotoxicity), Als1 + Als2 [3, 7] | Soybean response (percent phytotoxicity), Als1 + Als2 [3, 8]
did not cause any phytotoxic response: phytotoxic response (in words), Als2 [1] | phytotoxic response (in words), Als1 [2] | phytotoxic response (in words), Als1+Als2 [3]
15%: Soybean response (percent phytotoxicity), Wild type (wild type soybean; [8])
5%: Soybean response (percent phytotoxicity), Wild type (wild type soybean; [7])

COc1nn(C(=O)NS(=O)(=O)c2ccccc2OC(F)(F)F)c(=O)n1C [Flucarbazone]
15%: Soybean response (percent phytotoxicity), Als2 [1, 6]
10%: Soybean response (percent phytotoxicity), Als1 [2, 8] | Avg response (% phytotoxicity), Trait Als1 ([2]; 140 g ai/ha) | Soybean response (percent phytotoxicity), Als1 [2, 9] | Avg response (% phytotoxicity), Trait Als1 ([2]; 280 g ai/ha)
90%: Soybean response (percent phytotoxicity), Wild type (wild type soybean; [7])
230.45 g ai/ha: EC10, Als1 [2, 10]
5%: Soybean response (percent phytotoxicity), Als2 [1, 5] | Avg response (% phytotoxicity), Trait Als2 ([1]; 17.5 g ai/ha) | Soybean response (percent phytotoxicity), Als1 [2, 7] | Avg response (% phytotoxicity), Trait Als1 ([2]; 70 g ai/ha)
30%: Avg response (% phytotoxicity), Trait Als2 ([1]; 35 g ai/ha) | Soybean response (percent phytotoxicity), Als2 [1, 9]
0%: Soybean response (percent phytotoxicity), Als1 [2, 5] | Avg response (% phytotoxicity), Trait Als1 ([2]; 17.5 g ai/ha) | Soybean response (percent phytotoxicity), Als1 [2, 6] | Avg response (% phytotoxicity), Trait Als1 ([2]; 35 g ai/ha) | Soybean response (percent phytotoxicity), Als1 + Als2 [3, 5] | Avg response (% phytotoxicity), Trait Als1 + Als2 ([3]; 17.5 g ai/ha) | Soybean response (percent phytotoxicity), Als1 + Als2 [3, 6] | Avg response (% phytotoxicity), Trait Als1 + Als2 ([3]; 35 g ai/ha) | Soybean response (percent phytotoxicity), Als1 + Als2 [3, 7] | Avg response (% phytotoxicity), Trait Als1 + Als2 ([3]; 70 g ai/ha) | Soybean response (percent phytotoxicity), Als1 + Als2 [3, 8] | Avg response (% phytotoxicity), Trait Als1 + Als2 ([3]; 140 g ai/ha) | Soybean response (percent phytotoxicity), Als1 + Als2 [3, 9] | Avg response (% phytotoxicity), Trait Als1 + Als2 ([3]; 280 g ai/ha)
8.14 g ai/ha: EC10, Als2 [1, 10]
55%: Avg response (% phytotoxicity), Trait Als2 ([1]; 140 g ai/ha)
25%: Soybean response (percent phytotoxicity), Als2 [1, 8]
50%: Avg response (% phytotoxicity), Trait Als2 ([1]; 70 g ai/ha)
60%: Avg response (% phytotoxicity), Trait Als2 ([1]; 280 g ai/ha) | Soybean response (percent phytotoxicity), Wild type (wild type soybean; [5])
98%: Soybean response (percent phytotoxicity), Wild type (wild type soybean; [8]) | Soybean response (percent phytotoxicity), Wild type (wild type soybean; [9])
>280 g ai/ha: EC10, Als1 + Als2 [3, 10]
20%: Soybean response (percent phytotoxicity), Als2 [1, 7]
80%: Soybean response (percent phytotoxicity), Wild type (wild type soybean; [6])
